Reference: patent US6849405B2, “Translation enhancer element of the human amyloid precursor protein gene” (The Brigham and Women's Hospital, Inc., priority 1997, dated 2005)

Legend:
[1] = tested on: ACT-mRNA; test: Northern blot of ACT-mRNA, astrocytoma cells; format: cell-based, human; details: Northern blot, 16 hours stimulation
Protocol: Total RNA (10 μg) was extracted from primary astrocytes and astrocytoma cells with a RNA-STAT kit (Tel-Test). RNA samples were denatured in 50% formamide/2.2 M formaldehyde/20 mM MOPS/5 mM sodium acetate/0.5 mM EDTA, pH 7.4, at 60° C. for 10 minutes, electrophoresed on 1.0% agarose-formaldehyde gels, blotted onto Hybond-N filters and immobilized by UV crosslinking and heating filters to 80° C. Filters were prehybridized for 3 hours and hybridized overnight in a solution consisting of 50% formamide, […] denatured salmon sperm DNA, 5×SSC, 0.1% sodium dodecyl sulfate and 5×Denhardt's solution. Following hybridization, filters were washed twice for a total of 1 hour in 2×SSC/0.2% sodium dodecyl sulfate at room temperature and twice each for a total of 1 hour in 0.5×SSC/0.1% sodium dodecyl sulfate at 55° C. Equal loading was verified by ethidium bromide staining, non-specific hybridization of the ACT probe to the 28S rRNA, and by standardized hybridization to the GAPDH cDNA probe as an internal standard. The APP cDNA probe corresponded to the unique internal 1 kb fragment gel purified from the 3 kb APP cDNA (Kang et al. Nature 325: 733 (1987)), the ACT cRNA probe to a PstI/SacI fragment (536-943) in the human ACT cDNA (Chandra, et al., Biochemistry 22: 5055 (1983)) and the GAPDH probe to the human GAPDH gene (Tokunaga, et al., Cancer Res. 47: 5616 (1987)).

[2] = tested on: APP/CAT mRNA; test: RNase protection of APP/CAT mRNA in pSV2(APP)CAT-transfected astrocytoma cells; format: cell-based, human; details: 16 hours stimulation
Protocol: Cells were lysed in 2 ml of a buffer containing 4 M guanidinium thiocyanate, 25 mM NaOac, pH 6.0, 100 mm β-mercaptoethanol. RNA was prepared after shearing the DNA and centrifuging the lysate at 31K, 23° C. for 12 hours through 5 ml of 5.7 M CsCl2 cushion. This procedure ensured that CAT mRNAs and endogenous ferritin mRNAs were purified as a pellet without contamination from plasmid DNA containing transfected CAT gene sequences. The RNA pellet was resuspended in TES buffer (10 mM Tris, pH 7.6, 1 mM EDTA, 0.5% SDS) and was extracted with an equal volume of phenol/chloroform, ethanol-precipitated and resuspended in TES buffer.
Steady-state levels of transfected CAT mRNA from astrocytoma and neuroblastoma pSV2(APP)(CAT) transfectants was characterized by RNase protection. A 261 nucleotide ^32P-labeled cRNA was transcribed from a HindIII digested DNA template isolated from the CAT gene in the pSV2CAT subclone (Rogers, et al., Nucl. Acid Res. 22: 2678 (1994); Campbell, et al., Biochem. Biophys. Res. Commun. 160: 453 (1989); Fahmy, et al., Biochem. J. 296; 175 (1993)). Labeled cRNA, antisense to the CAT gene, was hybridized to 20 μg of mRNA purified from pSV2(APP)(CAT) transfectants of astrocytoma cells. […] Kinase labeled HaeIII-digested X-174 DNA fragments were used as DNA markers for autoradiography and quantitation of CAT mRNA levels.

Substance	ACT mRNA transcriptional change [1]	increase of steady-state APP/CAT mRNA level relative to unstimulated cells ([2]; pSV2(APP)CAT transfected astrocytoma cells)	decrease of steady-state level of CAT mRNA ([2]; pSV2(APP)CAT transfectants, two separate transfections)
interleukin-1β [IL-1β]	large transcriptional increase	30%	
interleukin-1α [IL-1α]	large transcriptional increase		50%
